Several values for one entry are separate records, joined by “and”; a condition that tells them apart may be missing. Identical values can stand only once.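 How tested: cells in 96-well plates exposed to compound for 48 hours at five concentrations. GI50: concentration for 50% inhibition of growth. TGI: concentration producing complete growth inhibition.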
Key:
Experiment in all cases: growth of human tumour cells (NCI), 48 h
[1] = system: COLO 205 colon
[2] = system: IGROV1 ovarian
[3] = system: A498 renal
[4] = system: OVCAR-8 ovarian
[5] = system: HCT-116 colon
[6] = system: HCC-2998 colon
[7] = system: CCRF-CEM leukemia
[8] = system: SN12C renal
[9] = system: MDA-MB-435
[10] = system: DU-145 prostate

Cc1ccc(CCC(=O)C(=O)O)s1
TGI [1]: > 100 µM
TGI [2]: > 100 µM
TGI [3]: > 100 µM
TGI [4]: > 100 µM
TGI [5]: > 100 µM
TGI [6]: > 100 µM
TGI [7]: > 100 µM
TGI [8]: > 100 µM

COc1ccc2c(c1)OC[C@@H]1c3cc(O)c(OCc4ccccc4)cc3O[C@H]21
TGI [1]: 74.1 µM
TGI [2]: > 100 µM
TGI [3]: > 100 µM
TGI [4]: > 100 µM
TGI [5]: > 100 µM
TGI [6]: > 100 µM
TGI [7]: > 100 µM

O=C1CC2CCC(C1)S2=O (centres undefined)
TGI [1]: > 100 µM
TGI [2]: > 100 µM
TGI [9]: > 100 µM
TGI [4]: > 100 µM
TGI [5]: > 100 µM
TGI [6]: > 100 µM
TGI [7]: > 100 µM
TGI [8]: > 100 µM
TGI [10]: > 100 µM

Cc1ccc(-n2cc([Si](C)(C)C)nn2)s1
TGI [1]: > 100 µM
TGI [3]: > 100 µM
TGI [9]: > 100 µM
TGI [4]: > 100 µM
TGI [5]: > 100 µM
TGI [6]: > 100 µM
TGI [8]: > 100 µM
TGI [10]: > 100 µM

CC1=NN(c2nc(N)nc(CF)n2)C(C)(C)C1
TGI [1]: > 100 µM
TGI [2]: > 100 µM
TGI [3]: > 100 µM
TGI [9]: > 100 µM
TGI [4]: > 100 µM
TGI [5]: > 100 µM
TGI [6]: > 100 µM
TGI [7]: > 100 µM
TGI [10]: > 100 µM

NCCCNCCCCN1CC1
TGI [1]: 4.06 µM
TGI [3]: 2.14 µM
TGI [9]: > 100 µM
TGI [5]: > 100 µM
TGI [6]: > 36.2 µM
TGI [10]: 6.17 µM

Fc1cc(-c2cc(-c3ccc4c(c3)OCO4)n[nH]2)c(Cl)cc1Cl
TGI [1]: > 23.4 µM
TGI [2]: 7.5 µM
TGI [9]: 30.9 µM
TGI [4]: 3.41 µM
TGI [5]: 4.17 µM
TGI [6]: 15.6 µM
TGI [7]: > 89 µM
TGI [8]: 7.58 µM
TGI [10]: 13 µM

CN(C)CCCNCc1cccc2ccccc12
TGI [1]: > 100 µM
TGI [2]: > 100 µM
TGI [3]: > 100 µM
TGI [9]: > 100 µM
TGI [4]: > 100 µM
TGI [5]: > 100 µM
TGI [7]: > 100 µM
TGI [8]: > 100 µM
TGI [10]: > 100 µM

C=C(C)CNC(=S)N(N)c1ccc2ccccc2c1
TGI [1]: > 100 µM
TGI [2]: > 100 µM
TGI [9]: > 100 µM
TGI [4]: > 100 µM
TGI [5]: > 100 µM
TGI [6]: > 100 µM
TGI [7]: > 100 µM
TGI [8]: > 100 µM
TGI [10]: > 100 µM

CCC[C@@H]1C(=O)N=C(N)N1C(=O)OCc1ccccc1
TGI [1]: > 100 µM
TGI [2]: > 100 µM
TGI [3]: > 100 µM
TGI [9]: > 100 µM
TGI [4]: > 100 µM
TGI [5]: > 100 µM
TGI [6]: > 100 µM
TGI [8]: > 100 µM
TGI [10]: > 100 µM

CCCC(=O)[O-].N.N.N.N.N.[Co+3].[O-][Cl+3]([O-])([O-])[O-]
TGI [1]: > 100 µM
TGI [2]: > 100 µM
TGI [3]: > 100 µM
TGI [4]: > 100 µM
TGI [5]: > 100 µM
TGI [6]: > 100 µM
TGI [7]: > 100 µM
TGI [8]: > 100 µM

COC(=O)C1=C(C(=O)OC)SC2(S1)C(C(=O)OC)=C(C(=O)OC)Sc1c2ssc1=NC(C)(C)C
TGI [1]: 3.22 µM
TGI [2]: 3.16 µM
TGI [3]: 3.48 µM
TGI [9]: 3.08 µM
TGI [4]: 3.77 µM
TGI [5]: 2.03 µM
TGI [8]: 2.52 µM
TGI [10]: 2.17 µM

C=C(c1ccccc1)c1ccccc1-c1cc(-c2ccccc2)cc(-c2ccccc2)n1
TGI [2]: > 100 µM
TGI [3]: > 100 µM
TGI [9]: > 100 µM
TGI [4]: > 100 µM
TGI [5]: > 100 µM
TGI [6]: > 100 µM
TGI [7]: > 100 µM
TGI [8]: > 100 µM
TGI [10]: > 100 µM

O=c1ccc2nc(-c3ccccn3)nn(-c3ccccc3)c-2c1
GI50 [1]: 2.2 µM
TGI [1]: 5.12 µM
GI50 [2]: 2.63 µM
TGI [2]: 6.65 µM
GI50 [3]: 14.1 µM
TGI [3]: 27.2 µM
GI50 [9]: 2.29 µM
TGI [9]: 5.75 µM
GI50 [4]: 3.1 µM
TGI [4]: > 100 µM
GI50 [5]: 1.77 µM
TGI [5]: 3.42 µM
GI50 [6]: 4.18 µM
TGI [6]: 14.6 µM
GI50 [8]: 2.24 µM
TGI [8]: 5.33 µM
GI50 [10]: 3.77 µM
TGI [10]: 11.1 µM

CCN1CCC(O)(/C=C/c2ccc(OC)cc2)C(C(=O)/C=C/c2ccc(OC)cc2)C1 (centres undefined)
TGI [1]: 20.6 µM
TGI [2]: 29.8 µM
TGI [3]: 27.2 µM
TGI [9]: 19 µM
TGI [5]: 14.7 µM
TGI [6]: 29 µM
TGI [7]: 5.76 µM
TGI [8]: 28 µM
TGI [10]: 22.8 µM

C[N+](C)(CCNC(=O)c1cccc2cc3ccccc3nc12)Cc1ccc([N+](=O)[O-])s1
TGI [1]: > 25 µM
TGI [2]: > 25 µM
TGI [3]: > 25 µM
TGI [9]: > 25 µM
TGI [4]: > 25 µM
TGI [5]: > 25 µM
TGI [7]: > 25 µM
TGI [8]: > 25 µM
TGI [10]: > 25 µM

COc1cc(CS(=O)c2ccc(O)cc2)cc(OC)c1OC (centres undefined)
TGI [1]: > 100 µM
TGI [2]: > 100 µM
TGI [3]: > 100 µM
TGI [9]: > 100 µM
TGI [4]: > 100 µM
TGI [5]: > 100 µM
TGI [7]: > 100 µM
TGI [8]: > 100 µM
TGI [10]: > 100 µM

COc1ccc(C2=NN=C3C(c4ccccc4)=Nc4ccccc4N3C2)cc1
TGI [1]: 70.7 µM
TGI [2]: > 100 µM
TGI [3]: > 100 µM
TGI [9]: > 100 µM
TGI [5]: 71.2 µM
TGI [6]: > 100 µM
TGI [7]: 8.24 µM
TGI [8]: > 100 µM
TGI [10]: 70.7 µM

CC(C)(C)[Si](C)(C)OCC1OC(n2cnc3c(=O)[nH]c(N)nc32)C(O[Si](C)(C)C(C)(C)C)C1O[Si](C)(C)C(C)(C)C (centres undefined)
TGI [1]: 3.2 µM
TGI [2]: 3.91 µM
TGI [3]: 6.21 µM
TGI [9]: 2.88 µM
TGI [4]: 11.3 µM
TGI [5]: 2.61 µM
TGI [6]: 4.02 µM
TGI [8]: 5.02 µM
TGI [10]: 12.2 µM

COC(=O)C(NC(=O)c1ccccc1)C(c1ccc(Cl)cc1)P(=O)(OC)OC (centres undefined)
TGI [1]: > 100 µM
TGI [2]: > 100 µM
TGI [3]: > 100 µM
TGI [4]: > 100 µM
TGI [5]: > 100 µM
TGI [6]: > 100 µM
TGI [7]: > 100 µM
TGI [8]: > 100 µM

C/C=C(/C)C(=O)O[C@H]1[C@H](O)CC(c2ccc3c(c2O)C(O)=C2C(=O)C4(OC)C(O)=C(C(N)=O)C(=O)[C@H](CC(=O)c5ccccc5O)C4CC2[C@@]3(C)OC)O[C@@H]1C (some centres undefined)
TGI [1]: 0.0288 µM
TGI [2]: 2.48 µM and 0.341 µM
GI50 [3]: 0.0198 µM
TGI [3]: 2.21 µM and 1.49 µM
TGI [9]: 1.64 µM
TGI [4]: 1.67 µM and 0.713 µM
TGI [5]: 0.0262 µM and 0.0189 µM
TGI [6]: 1.25 µM and 1.05 µM
TGI [8]: 1.39 µM and 0.198 µM

COC1OC2=CCC3C(=O)NC(=O)C3C2[C@H](OCc2ccccc2)C1OCc1ccccc1 (some centres undefined)
TGI [2]: 3.86 µM
TGI [4]: 3.07 µM
TGI [5]: 3.21 µM
TGI [6]: 11.4 µM
TGI [8]: 3.14 µM

CN1CCN(C2=CC(=O)c3c(O)ccc(O)c3C2=O)CC1
TGI [1]: 0.31 µM
TGI [2]: 3.06 µM
TGI [3]: 2.87 µM
TGI [9]: 0.332 µM
TGI [5]: 0.578 µM
TGI [6]: 3.23 µM
TGI [7]: 3.03 µM
TGI [8]: 2.99 µM
TGI [10]: 3.13 µM

O=C(N/N=C/c1cc(Br)cc(Br)c1[O-])c1ccccc1O.O=C(N/N=C/c1cc(Br)cc(Br)c1[O-])c1ccccc1O.[Ni+2]
TGI [1]: 3.22 µM
TGI [2]: 1.34 µM
TGI [4]: 1.34 µM
TGI [5]: 1.55 µM
TGI [6]: 1.39 µM
GI50 [7]: 0.537 µM
TGI [7]: > 100 µM
